According to publication PMC7031403, “A molecular switch regulating transcriptional repression and activation of PPARγ” (Nature Communications, 2020):

Tests used:
Test in all cases: Fluorescence polarization peptide interaction assay, NCoR ID2 peptide affinity, apo- or T0070907-bound wild type or mutant PPARγ LBD
Format in all cases: binding
[1] = target: T1, PPARγ LBD (wild type or mutant) (Homo sapiens, UniProt P37231, K329A); conditions: apo (DMSO) K301A PPARγ LBD; one site-total binding fit; read-out: NCoR ID2 peptide affinity, mean of fit (log scale) (converted)
T1 construct: made in house; host or cells: Escherichia coli BL21(DE3)
T1 sequence (P37231 231-505 K329A): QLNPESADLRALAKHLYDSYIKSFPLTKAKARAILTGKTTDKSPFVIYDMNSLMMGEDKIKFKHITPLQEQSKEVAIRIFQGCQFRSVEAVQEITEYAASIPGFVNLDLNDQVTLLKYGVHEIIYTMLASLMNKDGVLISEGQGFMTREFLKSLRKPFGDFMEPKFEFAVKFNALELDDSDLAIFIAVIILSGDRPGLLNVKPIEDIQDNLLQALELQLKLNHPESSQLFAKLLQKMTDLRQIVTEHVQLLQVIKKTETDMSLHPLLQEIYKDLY
T1 sequence (O75376 2256-2278 partner): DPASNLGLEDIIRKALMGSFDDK
Protocol: (§1) Plates were incubated at 25 °C for 1 h, and fluorescence polarization was measured on a BioTek Synergy Neo multimode plate reader at […] wavelengths. Data were plotted using GraphPad Prism as fluorescence polarization signal in millipolarization units vs. protein concentration and fit to a one site—total binding equation.

[2] = target: T2, PPARγ LBD (wild type or mutant) (Homo sapiens, UniProt P37231, E499A); conditions: apo (DMSO) E471A PPARγ LBD; one site-total binding fit; read-out: NCoR ID2 peptide affinity, mean of fit (log scale) (converted)
T2 construct: made in house; host or cells: Escherichia coli BL21(DE3)
Protocol: as §1

[3] = target: T3, PPARγ LBD (wild type or mutant) (Homo sapiens, UniProt P37231, Q322A); conditions: apo (DMSO) Q294A PPARγ LBD; one site-total binding fit; read-out: NCoR ID2 peptide affinity, mean of fit (log scale) (converted)
T3 construct: made in house; host or cells: Escherichia coli BL21(DE3)
T3 sequence (P37231 231-505 Q322A): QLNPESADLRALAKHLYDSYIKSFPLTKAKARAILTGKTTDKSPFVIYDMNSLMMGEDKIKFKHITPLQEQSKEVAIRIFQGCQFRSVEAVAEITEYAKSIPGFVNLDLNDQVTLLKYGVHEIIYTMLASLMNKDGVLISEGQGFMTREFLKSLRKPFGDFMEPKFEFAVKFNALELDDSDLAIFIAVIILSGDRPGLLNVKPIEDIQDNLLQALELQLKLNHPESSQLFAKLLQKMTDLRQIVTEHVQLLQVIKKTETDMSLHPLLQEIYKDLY
Protocol: as §1

[4] = target: T4, PPARγ LBD (wild type or mutant) (Homo sapiens, UniProt P37231, Q342A); conditions: apo (DMSO) Q314A PPARγ LBD; one site-total binding fit; read-out: NCoR ID2 peptide affinity, mean of fit (log scale) (converted)
T4 construct: made in house; host or cells: Escherichia coli BL21(DE3)
T4 sequence (P37231 231-505 Q342A): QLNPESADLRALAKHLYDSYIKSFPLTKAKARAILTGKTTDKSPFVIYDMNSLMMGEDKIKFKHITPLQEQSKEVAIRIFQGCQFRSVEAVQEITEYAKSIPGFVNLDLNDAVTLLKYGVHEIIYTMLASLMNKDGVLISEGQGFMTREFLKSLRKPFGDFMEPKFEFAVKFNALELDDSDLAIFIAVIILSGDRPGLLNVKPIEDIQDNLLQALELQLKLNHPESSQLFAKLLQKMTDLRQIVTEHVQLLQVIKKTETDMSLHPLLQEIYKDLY
Protocol: as §1

[5] = target: T5, PPARγ LBD (wild type or mutant) (Homo sapiens, UniProt P37231, D503A); conditions: apo (DMSO) D475A PPARγ LBD; one site-total binding fit; read-out: NCoR ID2 peptide affinity, mean of fit (log scale) (converted)
T5 construct: made in house; host or cells: Escherichia coli BL21(DE3)
Protocol: as §1

[6] = target: T6, PPARγ LBD (wild type or mutant) (Homo sapiens, UniProt P37231, H351A); conditions: apo (DMSO) H323A PPARγ LBD; one site-total binding fit; read-out: NCoR ID2 peptide affinity, mean of fit (log scale) (converted)
T6 construct: made in house; host or cells: Escherichia coli BL21(DE3)
T6 sequence (P37231 231-505 H351A): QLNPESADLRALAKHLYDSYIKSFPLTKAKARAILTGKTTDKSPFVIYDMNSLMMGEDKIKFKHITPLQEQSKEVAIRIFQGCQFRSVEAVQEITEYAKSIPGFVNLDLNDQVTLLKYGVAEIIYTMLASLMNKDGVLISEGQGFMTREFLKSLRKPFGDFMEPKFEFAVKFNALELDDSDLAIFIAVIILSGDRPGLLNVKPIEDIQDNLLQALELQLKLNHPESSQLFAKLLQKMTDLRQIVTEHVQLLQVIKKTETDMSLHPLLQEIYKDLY
Protocol: as §1

[7] = target: T7, PPARγ LBD (wild type or mutant) (Homo sapiens, UniProt P37231, N340A); conditions: apo (DMSO) N312A PPARγ LBD; one site-total binding fit; read-out: NCoR ID2 peptide affinity, mean of fit (log scale) (converted)
T7 construct: made in house; host or cells: Escherichia coli BL21(DE3)
T7 sequence (P37231 231-505 N340A): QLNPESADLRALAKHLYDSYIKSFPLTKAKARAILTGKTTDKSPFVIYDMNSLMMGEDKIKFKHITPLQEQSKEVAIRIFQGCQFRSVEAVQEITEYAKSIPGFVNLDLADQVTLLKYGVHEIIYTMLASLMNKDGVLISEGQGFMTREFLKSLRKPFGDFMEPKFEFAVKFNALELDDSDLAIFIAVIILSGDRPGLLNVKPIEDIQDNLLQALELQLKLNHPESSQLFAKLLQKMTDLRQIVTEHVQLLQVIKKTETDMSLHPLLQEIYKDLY
Protocol: as §1

[8] = target: T8, PPARγ LBD (wild type or mutant) (Homo sapiens, UniProt P37231, K347A); conditions: apo (DMSO) K319A PPARγ LBD; one site-total binding fit; read-out: NCoR ID2 peptide affinity, mean of fit (log scale) (converted)
T8 construct: made in house; host or cells: Escherichia coli BL21(DE3)
T8 sequence (P37231 231-505 K347A): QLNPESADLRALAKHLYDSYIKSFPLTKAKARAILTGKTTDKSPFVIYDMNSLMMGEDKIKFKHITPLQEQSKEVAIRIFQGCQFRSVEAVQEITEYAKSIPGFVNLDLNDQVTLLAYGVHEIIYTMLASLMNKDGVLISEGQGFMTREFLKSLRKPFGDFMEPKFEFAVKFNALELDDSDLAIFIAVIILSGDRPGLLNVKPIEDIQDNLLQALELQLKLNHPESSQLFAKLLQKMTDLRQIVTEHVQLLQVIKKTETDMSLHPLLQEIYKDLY
Protocol: as §1

[9] = target: T9, PPARγ LBD (wild type or mutant) (Homo sapiens, UniProt P37231, Q314A); conditions: apo (DMSO) Q286A PPARγ LBD; one site-total binding fit; read-out: NCoR ID2 peptide affinity, mean of fit (log scale) (converted)
T9 construct: made in house; host or cells: Escherichia coli BL21(DE3)
T9 sequence (P37231 231-505 Q314A): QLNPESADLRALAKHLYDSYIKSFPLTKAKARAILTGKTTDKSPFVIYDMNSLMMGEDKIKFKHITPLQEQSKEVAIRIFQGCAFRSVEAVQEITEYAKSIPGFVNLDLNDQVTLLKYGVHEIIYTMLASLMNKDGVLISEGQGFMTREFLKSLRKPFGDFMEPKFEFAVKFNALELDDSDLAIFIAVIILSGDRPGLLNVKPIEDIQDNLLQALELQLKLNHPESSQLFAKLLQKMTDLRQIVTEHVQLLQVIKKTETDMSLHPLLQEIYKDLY
Protocol: as §1

[10] = target: T10, PPARγ LBD (wild type or mutant) (Homo sapiens, UniProt P37231, D503R); conditions: apo (DMSO) D475R PPARγ LBD; one site-total binding fit; read-out: NCoR ID2 peptide affinity, mean of fit (log scale) (converted)
T10 construct: made in house; host or cells: Escherichia coli BL21(DE3)
T10 sequence (P37231 231-505 D503R): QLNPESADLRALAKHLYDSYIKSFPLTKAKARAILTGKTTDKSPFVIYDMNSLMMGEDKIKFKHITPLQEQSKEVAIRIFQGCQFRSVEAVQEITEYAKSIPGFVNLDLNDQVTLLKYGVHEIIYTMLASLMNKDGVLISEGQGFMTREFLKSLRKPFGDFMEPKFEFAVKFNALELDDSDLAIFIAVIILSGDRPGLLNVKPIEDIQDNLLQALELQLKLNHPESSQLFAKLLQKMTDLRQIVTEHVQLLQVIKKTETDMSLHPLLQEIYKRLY
Protocol: as §1

[11] = target: T11, PPARγ LBD (wild type or mutant) (Homo sapiens, UniProt P37231, H477A); conditions: apo (DMSO) H449A PPARγ LBD; one site-total binding fit; read-out: NCoR ID2 peptide affinity, mean of fit (log scale) (converted)
T11 construct: made in house; host or cells: Escherichia coli BL21(DE3)
T11 sequence (P37231 231-505 H477A): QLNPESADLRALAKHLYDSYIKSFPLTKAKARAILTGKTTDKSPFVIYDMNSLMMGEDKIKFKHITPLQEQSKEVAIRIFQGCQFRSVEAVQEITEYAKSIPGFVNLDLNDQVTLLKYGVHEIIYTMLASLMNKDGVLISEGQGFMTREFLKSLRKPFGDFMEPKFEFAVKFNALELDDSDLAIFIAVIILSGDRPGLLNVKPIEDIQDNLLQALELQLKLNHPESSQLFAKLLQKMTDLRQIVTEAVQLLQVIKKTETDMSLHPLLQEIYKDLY
Protocol: as §1

[12] = target: T12, PPARγ LBD (wild type or mutant) (Homo sapiens, UniProt P37231, R308A); conditions: apo (DMSO) R280A PPARγ LBD; one site-total binding fit; read-out: NCoR ID2 peptide affinity, mean of fit (log scale) (converted)
T12 construct: made in house; host or cells: Escherichia coli BL21(DE3)
T12 sequence (P37231 231-505 R308A): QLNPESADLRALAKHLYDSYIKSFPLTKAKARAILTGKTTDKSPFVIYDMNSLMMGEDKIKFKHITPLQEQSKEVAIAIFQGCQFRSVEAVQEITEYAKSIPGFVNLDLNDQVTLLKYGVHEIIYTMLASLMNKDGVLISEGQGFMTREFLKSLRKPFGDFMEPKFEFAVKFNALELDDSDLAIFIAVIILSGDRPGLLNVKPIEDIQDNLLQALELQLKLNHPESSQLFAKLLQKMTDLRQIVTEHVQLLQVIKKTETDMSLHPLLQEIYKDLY
Protocol: as §1

[13] = target: T13, PPARγ LBD (wild type or mutant) (Homo sapiens, UniProt P37231, M392A); conditions: apo (DMSO) M364A PPARγ LBD; one site-total binding fit; read-out: NCoR ID2 peptide affinity, mean of fit (log scale) (converted)
T13 construct: made in house; host or cells: Escherichia coli BL21(DE3)
T13 sequence (P37231 231-505 M392A): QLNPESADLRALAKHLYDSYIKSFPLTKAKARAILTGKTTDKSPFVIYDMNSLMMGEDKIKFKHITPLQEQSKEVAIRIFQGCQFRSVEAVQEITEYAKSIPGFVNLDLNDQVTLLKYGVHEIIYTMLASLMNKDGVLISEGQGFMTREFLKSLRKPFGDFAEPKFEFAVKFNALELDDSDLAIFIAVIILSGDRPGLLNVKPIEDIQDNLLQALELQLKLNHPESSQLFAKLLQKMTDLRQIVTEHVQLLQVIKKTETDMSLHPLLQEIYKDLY
Protocol: as §1

[14] = target: T14, PPARγ LBD (wild type or mutant) (Homo sapiens, UniProt P37231, R316A); conditions: apo (DMSO) R288A PPARγ LBD; one site-total binding fit; read-out: NCoR ID2 peptide affinity, mean of fit (log scale) (converted)
T14 construct: made in house; host or cells: Escherichia coli BL21(DE3)
Protocol: as §1

[15] = target: T15, PPARγ LBD (wild type or mutant) (Homo sapiens, UniProt P37231, K395A); conditions: apo (DMSO) K367A PPARγ LBD; one site-total binding fit; read-out: NCoR ID2 peptide affinity, mean of fit (log scale) (converted)
T15 construct: made in house; host or cells: Escherichia coli BL21(DE3)
T15 sequence (P37231 231-505 K395A): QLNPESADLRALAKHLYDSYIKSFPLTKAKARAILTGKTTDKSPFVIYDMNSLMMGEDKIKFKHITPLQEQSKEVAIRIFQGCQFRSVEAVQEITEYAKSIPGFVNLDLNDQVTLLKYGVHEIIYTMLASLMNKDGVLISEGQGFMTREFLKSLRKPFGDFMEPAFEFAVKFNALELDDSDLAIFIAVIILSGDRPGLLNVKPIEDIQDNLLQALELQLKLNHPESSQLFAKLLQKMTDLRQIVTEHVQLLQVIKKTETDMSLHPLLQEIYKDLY
Protocol: as §1

[16] = target: T16, PPARγ LBD (wild type or mutant) (Homo sapiens, UniProt P37231, Y505A); conditions: apo (DMSO) Y477A PPARγ LBD; one site-total binding fit; read-out: NCoR ID2 peptide affinity, mean of fit (log scale) (converted)
T16 construct: made in house; host or cells: Escherichia coli BL21(DE3)
T16 sequence (P37231 231-505 Y505A): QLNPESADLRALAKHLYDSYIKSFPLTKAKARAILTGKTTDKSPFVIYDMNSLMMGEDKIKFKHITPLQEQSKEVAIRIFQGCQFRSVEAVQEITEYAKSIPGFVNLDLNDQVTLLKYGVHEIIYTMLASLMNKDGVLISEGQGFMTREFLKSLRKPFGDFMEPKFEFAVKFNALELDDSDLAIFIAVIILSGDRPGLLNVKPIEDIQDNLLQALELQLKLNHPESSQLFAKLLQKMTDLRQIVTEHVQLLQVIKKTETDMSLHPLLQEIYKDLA
Protocol: as §1

[17] = target: T17, PPARγ LBD (wild type or mutant) (Homo sapiens, UniProt P37231, E499R); conditions: apo (DMSO) E471R PPARγ LBD; one site-total binding fit; read-out: NCoR ID2 peptide affinity, mean of fit (log scale) (converted)
T17 construct: made in house; host or cells: Escherichia coli BL21(DE3)
T17 sequence (P37231 231-505 E499R): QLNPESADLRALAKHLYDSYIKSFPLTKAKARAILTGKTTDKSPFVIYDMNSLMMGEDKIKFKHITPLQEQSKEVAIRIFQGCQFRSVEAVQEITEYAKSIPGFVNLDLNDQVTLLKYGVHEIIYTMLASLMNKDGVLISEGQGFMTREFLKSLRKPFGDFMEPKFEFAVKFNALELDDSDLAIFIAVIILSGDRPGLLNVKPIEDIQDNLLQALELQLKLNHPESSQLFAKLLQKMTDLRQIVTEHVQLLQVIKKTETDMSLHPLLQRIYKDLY
Protocol: as §1

[18] = target: T18, PPARγ LBD (wild type or mutant) (Homo sapiens, UniProt P37231, Y355A); conditions: apo (DMSO) Y327A PPARγ LBD; one site-total binding fit; read-out: NCoR ID2 peptide affinity, mean of fit (log scale) (converted)
T18 construct: made in house; host or cells: Escherichia coli BL21(DE3)
T18 sequence (P37231 231-505 Y355A): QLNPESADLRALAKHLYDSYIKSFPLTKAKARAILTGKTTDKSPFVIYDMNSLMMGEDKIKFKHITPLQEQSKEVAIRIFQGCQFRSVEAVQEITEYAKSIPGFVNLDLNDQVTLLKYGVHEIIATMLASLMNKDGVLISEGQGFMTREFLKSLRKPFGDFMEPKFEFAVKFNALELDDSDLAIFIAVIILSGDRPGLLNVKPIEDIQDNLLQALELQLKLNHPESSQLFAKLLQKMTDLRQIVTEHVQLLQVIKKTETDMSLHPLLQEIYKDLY
Protocol: as §1

In the case of `CC[C@H](C)[C@H](NC(=O)[C@H](CC(=O)O)NC(=O)[C@H](CCC(=O)O)NC(=O)[C@H](CC(C)C)NC(=O)CNC(=O)[C@H](CC(C)C)NC(=O)[C@H](CC(N)=O)NC(=O)[C@H](CO)NC(=O)[C@H](C)NC(=O)[C@@H]1CCCN1C(=O)[C@H](CC(=O)O)NC(=O)CCCCCNC(=S)Nc1ccc2c(c1)C(=O)OC21c2ccc(O)cc2Oc2cc(O)ccc21)C(=O)N[C@H](C(=O)N[C@@H](CCCNC(=N)N)C(=O)N[C@@H](CCCCN)C(=O)N[C@@H](C)C(=O)N[C@@H](CC(C)C)C(=O)N[C@@H](CCSC)C(=O)NCC(=O)N[C@@H](CO)C(=O)N[C@@H](Cc1ccccc1)C(=O)N[C@@H](CC(=O)O)C(=O)N[C@@H](CC(=O)O)C(=O)N[C@@H](CCCCN)C(N)=O)[C@@H](C)CC` [NCoR-D2], the Kd [1] was 4930 nM, the Kd [2] was 525 nM and the Kd [3] was 2420 nM. The Kd [4] was 867 nM, the Kd [5] was 621 nM and the Kd [6] was 621 nM. The Kd [7] was 1410 nM, the Kd [8] was 2580 nM and the Kd [9] was 807 nM. The Kd [10] was 522 nM, the Kd [11] was 1490 nM and the Kd [12] was 766 nM. The Kd [13] was 38700 nM, the Kd [14] was 1200 nM and the Kd [15] was 1080 nM. For the same compound, the Kd [16] was 822 nM, the Kd [17] was 348 nM and the Kd [18] was 590 nM.
